# Laboratory results reported in PMC3343456 (Angewandte Chemie (International ed. in English), 2011).
# Target: GilOI (Streptomyces griseoflavus, UniProt Q7X2G6)
# Assay: cofactor content of the purified enzyme
# Assay type: binding
smiles,measurement,value
Cc1cc2nc3c(=O)[nH]c(=O)nc-3n(C[C@H](O)[C@H](O)[C@H](O)COP(=O)(O)OP(=O)(O)OC[C@H]3O[C@@H](n4cnc5c(N)ncnc54)[C@H](O)[C@@H]3O)c2cc1C [flavin adenine dinucleotide],cofactor content of the purified enzyme (Figure S3),"GilOI and GilOIV are oxygenases that contain flavin adenine dinucleotide (FAD, Figure S3"
